The subject of data set [1] is RPMI-8226. Kind of data set: Induction of apoptosis in human RPMI-8226 cells assessed as viable cells at 2.5 uM incubated for 24 hrs by Annexin V-FITC/PI staining based flow cytometry (reference value: 90.98 %). The class given is functional. The conditions noted are these: read-out: Activity.
Data set [2] has as its system RPMI-8226. Kind of data set: Induction of apoptosis in human RPMI-8226 cells assessed as late apoptotic cells at 2.5 uM incubated for 24 hrs by Annexin V-FITC/PI staining based flow cytometry (reference value: 2.78 %). The class given is functional. A general note: A flow cytometer gives signals particle by particle.
The test system of data set [3] is RPMI-8226. Kind of data set: Antitumor activity against human RPMI-8226 cells xenografted in Balb/c nude mouse assessed as ratio of tumor to control at 40 mg/kg, po qd for 21 days administered consecutively relative to control. The format is functional. The note with it: time 21 day. Background: In xenograft studies the graft and the host belong to different species.

A short description of data set [4]: Tmax in mouse at 10 mg/kg, po. The conditions noted are these: in vivo. The class given is ADME, organism-based.
The nature of data set [5]: AUC (0 to t) in mouse at 1 mg/kg, iv. The conditions noted are these: in vivo. The class given is ADME, organism-based.
Data set [6] relates to RPMI-8226. Kind of data set: Induction of cell cycle arrest at G2 phase in human RPMI-8226 cells at 2.5 uM incubated for 24 hrs by PI staining based flow cytometry (reference value: 18.3 %). The class given is functional.
For data set [7], the system named is RPMI-8226. Kind of data set: Induction of apoptosis in human RPMI-8226 cells assessed as necrotic cells at 2.5 uM incubated for 24 hrs by Annexin V-FITC/PI staining based flow cytometry (reference value: 0.90 %). The class given is functional.
A short description of data set [8]: Oral bioavailability in mouse at 10 mg/kg. The conditions noted are these: in vivo. The class given is ADME, organism-based.
A short description of data set [9]: Volume of distribution at steady state in mouse at 1 mg/kg, iv. The format is ADME, organism-based. The note with it: in vivo, read-out: Vdss.
Data set [10] is described as follows: Half life in mouse at 1 mg/kg, iv. The class given is ADME, organism-based. The conditions noted are these: in vivo.
Data set [11] relates to RPMI-8226. Kind of data set: Induction of cell cycle arrest at S phase in human RPMI-8226 cells at 2.5 uM incubated for 24 hrs by PI staining based flow cytometry (reference value: 58.5 %). The format is functional.
Data set [12] has as its system RPMI-8226. Kind of data set: Induction of apoptosis in human RPMI-8226 cells assessed as early apoptotic cells at 2.5 uM incubated for 24 hrs by Annexin V-FITC/PI staining based flow cytometry (reference value: 5.34 %). The class given is functional.
Data set [13] can be described thus: Clearance in mouse at 1 mg/kg, iv. The class given is ADME, organism-based. The conditions noted are these: in vivo.
Data set [14] can be described thus: Cmax in mouse at 10 mg/kg, po. The format is ADME, organism-based. The conditions noted are these: in vivo.
The nature of data set [15]: Toxicity in Balb/c nude mouse xenografted with human RPMI-8226 cells assessed as body weight loss at 40 mg/kg, po qd for 21 days administered consecutively. The note with it: in vivo, 504 h, time 21 day. The class given is organism-based.
For data set [16], the system named is RPMI-8226. Kind of data set: Induction of cell cycle arrest at G1 phase in human RPMI-8226 cells at 2.5 uM incubated for 24 hrs by PI staining based flow cytometry (reference value: 19.2 %). The class given is functional.

`O=C(CCCCCCNC(=O)c1cnc(N(c2ccccc2)c2ccccc2)nc1)NO` [RICOLINOSTAT]: in the data set with RPMI-8226 [1], the viability at 2.5 µM was found to be 75.3%. The Activity with RPMI-8226 [2] was 4.33%; in the data set on RPMI-8226 [6], 24.5%; in the data set with RPMI-8226 [7], 0.56%; with RPMI-8226 [11], 40.8%; in the data set on RPMI-8226 [12] it was 19.84%; in [15], “Non-Toxic”. In addition, in the data set on RPMI-8226 [16], the Activity was 28.1%. In addition, the T/C (usually the ratio of treated to control) in the data set with RPMI-8226 [3] was 39.9%. In [4], the time of peak concentration (Tmax) (usually the time from dosing to the highest level) stood at 15 min. The AUC(0-t) (as a rule, exposure summed from dosing to a finite time, without extrapolation to infinity) in [5] came out at 566 ng·h/mL. In addition, in data set [8], the bioavailability (usually dose-corrected exposure relative to a reference, in per cent) came to 6%. Moreover, in [9], the Vd amounted to 0.525 L/kg. The half-life (commonly the time in which the quantity being followed falls by half) in data set [10] was 22.3 min. Besides, the clearance (usually the volume of plasma or blood freed of the substance per unit of time) in data set [13] was found to be 29.4 mL/min/kg. Further, in data set [14], the Cmax (usually the maximum level reached in the sampled fluid or tissue) was 333 ng/mL.
